# Test results: the supplement of paper PMC9938120
# Columns and labels:
# Experiment in all cases: drug sensitivity score (DSS3, normalised partial AUC of % inhibition dose-response) (DSS (score)); higher = more sensitive (stronger inhibition of viability); extreme values may be limits of the assay
# FMOC22 = patient-derived mucinous ovarian cancer cells; details: 72 h; library: FO5A; assay format: 2D, 384-well, CellTiter-Glo
# Method in brief: (§1)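 Cells were dispensed onto 384-well flat clear-bottom plates already holding compounds at five concentrations over a 10,000-fold range, using patient-derived ovarian cancer cells at passage under 10. Incubation lasted 72 h at 37 °C in 5% CO2, after which CellTiter-Glo viability data were processed in Breeze. Higher drug sensitivity scores, each a partial area under the percent-inhibition dose-response curve divided by the log of the upper asymptote, mean more sensitive cells.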
# FMOC24 = patient-derived high-grade serous ovarian cancer cells; details: 72 h; library: FO5A; assay format: 2D, 384-well, CellTiter-Glo
# Method in brief: as §1
# FMOC06 = patient-derived mucinous ovarian cancer cells; details: 72 h; library: FO5A; assay format: 2D, 384-well, CellTiter-Glo
# Method in brief: as §1
# FMOC14 = patient-derived high-grade serous ovarian cancer cells; details: 72 h; library: FO5A; assay format: 2D, 384-well, CellTiter-Glo
# Method in brief: as §1
# FMOC25_2 = patient-derived low-grade serous ovarian cancer cells; details: 72 h; library: FO5A; assay format: 2D, 384-well, CellTiter-Glo
# Method in brief: as §1
# FMOC25_1 = patient-derived low-grade serous ovarian cancer cells; details: 72 h; library: FO4B; assay format: 2D, 384-well, CellTiter-Glo
# Method in brief: as §1
# FMOC02_3 = patient-derived low-grade serous ovarian cancer cells; details: 72 h; library: FO5A; assay format: 2D, 384-well, CellTiter-Glo
# Method in brief: as §1
# FMOC09 = patient-derived high-grade serous ovarian cancer cells; details: 72 h; library: FO5A; assay format: 2D, 384-well, CellTiter-Glo
# Method in brief: as §1
# FMOC03 = patient-derived mucinous ovarian cancer cells; details: 72 h; library: FO5A; assay format: 2D, 384-well, CellTiter-Glo
# Method in brief: as §1
# FMOC02_2 = patient-derived low-grade serous ovarian cancer cells; details: 72 h; library: FO5A; assay format: 2D, 384-well, CellTiter-Glo
# Method in brief: as §1
Structure (SMILES),drug sensitivity score (FMOC22),drug sensitivity score (FMOC24),drug sensitivity score (FMOC06),drug sensitivity score (FMOC14),drug sensitivity score (FMOC25_2),drug sensitivity score (FMOC25_1),drug sensitivity score (FMOC02_3),drug sensitivity score (FMOC09),drug sensitivity score (FMOC03),drug sensitivity score (FMOC02_2)
O=C(Nc1c[nH]nc1-c1nc2ccc(CN3CCOCC3)cc2[nH]1)NC1CC1 [AT9283],0.5,4.7,2.8,1.8,5.1,0.1,9.3,5.7,3.4,4.1
CN[C@@H](C)C(=O)N[C@H]1CN(C(=O)CC(C)C)CC[C@H]2CC[C@@H](C(=O)NC(c3ccccc3)c3ccccc3)N2C1=O [AT-406],0,24.9,8.8,5.4,5,1.5,0.3,0,1.5,0
CC[C@H](CC#N)OC(=O)N[C@@H](C)c1cccc(NC(=O)Nc2ccc(-c3cnco3)c(OC)c2)c1 [AVN944],14.2,6.45,13.4,11,10.3,9.7,12.6,11.2,13.4,9.8
NC(=O)Nc1cc(-c2cccc(F)c2)sc1C(=O)N[C@H]1CCCNC1 [AZD7762],3.3,9.15,3.6,6.2,4.5,3.3,6.1,6.3,1.5,3.5
COc1ccc(-c2ccc3c(N4CCOC[C@@H]4C)nc(N4CCOC[C@@H]4C)nc3n2)cc1CO [AZD8055],17.4,13.3,20.3,16.2,28.8,30.9,29.9,14.5,20.7,28.6
Cc1ncc(-c2ccnc(Nc3ccc(S(C)(=O)=O)cc3)n2)n1C(C)C [AZD-5438],7,13.6,8.2,9.7,12.8,8.1,15.2,3.4,7.5,12.4
CN(C)Cc1c(C(=O)NCCOc2ccc(C(=O)NO)cc2)oc2ccccc12 [Abexinostat],8.5,15.3,11.7,13.5,14.2,13.3,14,5.9,12.7,16.6
CN(C)C/C=C/C(=O)Nc1cc2c(Nc3ccc(F)c(Cl)c3)ncnc2cc1O[C@H]1CCOC1 [Afatinib],0.3,2.75,4.3,7.7,16.9,10.4,18.2,14.4,17,17.5
COc1cccc2c1C(=O)c1c(O)c3c(c(O)c1C2=O)C[C@@](O)(/C(CO)=N/NC(=O)CCCCCN1C(=O)C=CC1=O)C[C@@H]3O[C@H]1C[C@H](N)[C@H](O)[C@H](C)O1 [Aldoxorubicin],4.5,5.2,4.4,4.7,7.9,5.3,7.8,6.1,3.9,5
COc1cc(Nc2ncc3c(n2)-c2ccc(Cl)cc2C(c2c(F)cccc2OC)=NC3)ccc1C(=O)O [Alisertib],2.2,1,1.3,0.7,2.3,0.9,5.8,2.3,4.7,4.8
CN1CC[C@H](c2c(O)cc(O)c3c(=O)cc(-c4ccccc4Cl)oc23)[C@H](O)C1 [Alvocidib],12.8,18.7,17,15.3,19.6,19.1,22.4,10.7,17.9,21.3
COc1cc(NS(C)(=O)=O)ccc1Nc1c2ccccc2nc2ccccc12 [Amsacrine],8.3,8.05,4.5,2.2,7.1,8.2,7,4.7,6,5.2
O=C1CN2Cc3c(ccc(Cl)c3Cl)N=C2N1 [Anagrelide],0,0,0.7,0,0,0,0,18.7,0,0
CC(=O)OC[C@H]1O[C@@H]([S-])[C@H](OC(C)=O)[C@@H](OC(C)=O)[C@@H]1OC(C)=O.CCP(CC)CC.[Au+] [Auranofin],3.1,1.1,4.1,5.2,3.8,0,1.8,3.5,1.3,0
Nc1ncn([C@@H]2O[C@H](CO)[C@@H](O)[C@H]2O)c(=O)n1 [Azacitidine],3.7,14.2,1.3,5,3,3.2,4.7,4.1,1.8,5.7
Cc1cc(-c2nc(-c3ccc(OC(F)(F)F)cc3)no2)nn1Cc1ccnc(N2CCN(C3CC3)CC2)c1 [BAY 87-2243],6,0,0,3.1,5.3,2.2,0,0,6.4,0
CC[C@@H]1C(=O)N(C)c2cnc(Nc3ccc(C(=O)NC4CCN(C)CC4)cc3OC)nc2N1C1CCCC1 [BI 2536],5.1,2.25,2.1,0.4,7.3,5.8,9.3,9.1,5.2,6.7

Structure (SMILES),drug sensitivity score (FMOC22),drug sensitivity score (FMOC24),drug sensitivity score (FMOC06),drug sensitivity score (FMOC14),drug sensitivity score (FMOC25_2),drug sensitivity score (FMOC25_1),drug sensitivity score (FMOC02_3),drug sensitivity score (FMOC09),drug sensitivity score (FMOC03),drug sensitivity score (FMOC02_2)
COc1c(C)cnc(Cn2cnc3c(Cl)nc(N)nc32)c1C [BIIB021],11.7,10.7,10,13.2,15.5,13,21.1,13.7,17.2,16.9
O=C(Nc1cccc(Nc2ncc(Br)c(NCCc3cnc[nH]3)n2)c1)N1CCCC1 [BX-912],2.4,4.65,4.4,0.5,7.6,6.2,7.6,2,2.4,5
O=C(/C=C/c1cccc(S(=O)(=O)Nc2ccccc2)c1)NO [Belinostat],9.9,11.4,11.9,16,10.5,10.8,10.3,6.4,13.6,12.3
CC[C@H](NC(=O)[C@H](C)NC)C(=O)N1C[C@@H](O)C[C@H]1Cc1c(-c2[nH]c3cc(F)ccc3c2C[C@@H]2C[C@H](O)CN2C(=O)[C@H](CC)NC(=O)[C@H](C)NC)[nH]c2cc(F)ccc12 [Birinapant],0,21.2,3.9,4.5,8.3,1.1,0,0,0,0
CC(C)C[C@H](NC(=O)[C@H](Cc1ccccc1)NC(=O)c1cnccn1)B(O)O [Bortezomib],28.4,30.8,26.2,28.5,30.1,27.2,24.9,20.4,28.2,28.8
COc1cc(Nc2c(C#N)cnc3cc(OCCCN4CCN(C)CC4)c(OC)cc23)c(Cl)cc1Cl [Bosutinib],6.4,7.55,5.2,6.6,13.2,3.7,14.1,9.2,9.3,14.6
Nc1cc(C(F)(F)F)c(-c2cc(N3CCOCC3)nc(N3CCOCC3)n2)cn1 [Buparlisib],6.3,2.25,8.7,4.2,10.8,11.5,13.3,6.7,8.6,11.7
CN(C)c1cc2c(cc1Sc1nc3c(N)nccc3n1CCNCC(C)(C)C)OCO2 [CUDC-305],8.9,8.05,9.8,9.3,15.2,12.2,13.9,9.7,16.1,12.9
COc1ccc(-c2nc(N3CCOCC3)c3sc(CN(C)c4ncc(C(=O)NO)cn4)cc3n2)cn1 [CUDC-907],31.1,33.7,31.2,31.4,29.1,29.2,33.2,18.4,32.8,34.3
CO[C@H]1C(=O)[C@]2(C)[C@@H](OC)C[C@H]3OC[C@@]3(OC(C)=O)[C@H]2[C@H](OC(=O)c2ccccc2)[C@]2(O)C[C@H](OC(=O)[C@H](O)[C@@H](NC(=O)OC(C)(C)C)c3ccccc3)C(C)=C1C2(C)C [Cabazitaxel],15.2,0.3,11.3,0,17.3,12,19.9,13.5,16,12.6
C=CC(=O)Nc1cc2c(Nc3ccc(F)c(Cl)c3)ncnc2cc1OCCCN1CCOCC1 [Canertinib],8,5.3,9,9.5,14.6,10,18.7,20.8,20.6,21.8
O=C(O)C1(C(=O)O)CCC1.[NH2-].[NH2-].[Pt+2] [Carboplatin],2.8,8.3,1.3,4.9,2.8,1.3,5,9.1,0.6,4.9
CC(C)C[C@H](NC(=O)[C@H](CCc1ccccc1)NC(=O)CN1CCOCC1)C(=O)N[C@@H](Cc1ccccc1)C(=O)N[C@@H](CC(C)C)C(=O)[C@@]1(C)CO1 [Carfilzomib],20.1,27.4,22.4,23.6,25.5,21.6,24.6,21.6,18,18.7
CCS(=O)(=O)N1CCN(c2ccc(Nc3ncc(C(N)=O)c(NC4CC4)n3)cc2)CC1 [Cerdulatinib],0,3.3,0,3.4,10.6,4,0,0,0,0
CCN(CC)CCCC(C)Nc1ccnc2cc(Cl)ccc12 (stereo not given) [Chloroquine],5.6,10.2,7.2,7.6,7,7.1,9.4,6,7.8,10.1
CC(C)[C@H]1C(=O)N[C@@H](CCCNC(=N)N)C(=O)NCC(=O)N[C@@H](CC(=O)O)C(=O)N[C@H](Cc2ccccc2)C(=O)N1C [Cilengitide],0,2.4,0,1.9,0,0,1.3,4.3,0.1,0
N.N.[Cl][Pt][Cl] [Cisplatin],6.3,18.6,6,3.7,6,7.3,9.1,16.6,4,9.2
